Source: patent publication US20080107619A1, “Carbohydrate based cellulase inhibitors as feeding stimulants in termites” (University of Florida Research Foundation, Inc., priority 2006, published 2008)
Entries after “also recorded” stand apart in the source; their conditions may differ.

System: R. flavipes worker termites
Assay: No-choice Petri dish in vivo feeding bioassay (feeding and mortality, 24 days)
Conditions: for Normalized Avg. Totals: relative to control [0] average; for maximum mortality: after 24 days
Experimental: R. flavipes colonies were collected from the University of Florida campus during spring and summer 2006. Colonies were maintained in sealed plastic boxes (30×24×10 cm) at 22±1° C. and 69±1% RH. Colonies were maintained without soil and provisioned with moist brown paper towels and wood shims. Colonies that were acclimated under the above conditions for <2 months are referred to as “field colonies”, while those held for >6 months are referred to as “lab colonies”. Unless otherwise stated, all studies reported here were run with lab colonies.
Two different termite colonies were used. A lab colony was used in bioassays that tested the effects of CBI and FMG; this was the same colony used in cellulase optimization studies, cellulase distribution studies, and for […] determination. The other colony was a field colony, which was used to repeat the FMG assay along side FMCB. The no-choice feeding bioassay was derived from a previously-developed and slightly modified caste differentiation assay reported by M. E. Scharf, et al. in “Caste differentiation responses of two sympatric Reticulitermes termite species to juvenile hormone homologs and synthetic juvenoids in two laboratory assays.” Insectes Soc. […] Acad. Sci. USA, 103 (2006) 4499-504.
Prior to treatment, paper disks 30 were weighed. Treatments and controls were held in complete darkness at approximately 26±1° C. and 69±1% RH. The inhibitor concentrations tested were 75, 50, 25, 10, 5, 1, 0.5, and 0.1 mM (approximately […] wt/wt). For each inhibitor, paper disks were treated with 50 μl of a given concentration. Control disks received 50 μl methanol alone. Treated papers were allowed to dry in a fume hood for 30 min before placing in dishes, wetting with 25 μl water, and adding 15 termites.
Termite feeding on the filter papers was readily observable and quantifiable from the bioassays. Average feeding through the entire bioassay was summed within each replicate and calculated as a percentage of feeding relative to untreated controls, then averaged across replicates.
The experimental design consisted of three replicate dishes per concentration. All assays were carried out for a total of 24 days. Termite mortality and filter paper moisture were monitored every 4th day. Every 8th day, old paper disks were replaced with new ones. These new filter paper disks were treated with identical inhibitor concentrations. The removed filter paper disks 30, showing the results of termite feeding (FIG. 6), were dried and re-weighed. At the end of each assay, data were summarized as cumulative feeding per live termite and cumulative termite mortality. Data were analyzed by non-parametric t-tests (p<0.05) with commercially-available software for use in statistical analysis, designed by SAS Institute, Cary, N.C.
FIGS. 7A-7F provide graphic data on in vivo feeding bioassays conducted with the carbohydrate-based cellulase inhibitors to assess the impact on termite feeding and survivorship. Feeding results are expressed as the cumulative percent of untreated controls through 24 days. Mortality results are expressed as percent mortality after 24 days. […] Error bars represent standard error of the mean.

[1] = 0.1 mM test conc., 1st ROUND (lab colony)
[2] = 0.1 mM test conc., 2nd ROUND (field colony)
[3] = 0.5 mM test conc., 1st ROUND (lab colony)
[4] = 0.5 mM test conc., 2nd ROUND (field colony)
[5] = 1 mM test conc., 1st ROUND (lab colony)
[6] = 1 mM test conc., 2nd ROUND (field colony)
[7] = 5 mM test conc., 1st ROUND (lab colony)
[8] = 5 mM test conc., 2nd ROUND (field colony)
[9] = 10 mM test conc., 1st ROUND (lab colony)
[10] = 10 mM test conc., 2nd ROUND (field colony)
[11] = 25 mM test conc., 1st ROUND (lab colony)
[12] = 25 mM test conc., 2nd ROUND (field colony)
[13] = 50 mM test conc., 1st ROUND (lab colony)
[14] = 50 mM test conc., 2nd ROUND (field colony)
[15] = 75 mM test conc., 1st ROUND (lab colony)
[16] = 75 mM test conc., 2nd ROUND (field colony)

Substance: fluoromethyl glucose [FMG]
- Average Feeding in mg per Live Termite (std. err.) days 1-8 [1]: 0.52 (0.03) mg per Live Termite
- Average Feeding in mg per Live Termite (std. err.) days 9-16 [1]: 0.48 (0.10) mg per Live Termite
- Average Feeding in mg per Live Termite (std. err.) days 17-24 [1]: 0.45 (0.04) mg per Live Termite
- Normalized Avg. Totals [1]: 0.98
- Average Feeding in mg per Live Termite (std. err.) days 1-8 [2]: 0.20 (0.04) mg per Live Termite
- Average Feeding in mg per Live Termite (std. err.) days 9-16 [2]: 0.33 (0.05) mg per Live Termite
- Average Feeding in mg per Live Termite (std. err.) days 17-24 [2]: 0.48 (0.07) mg per Live Termite
- Normalized Avg. Totals [2]: 0.92
- Average Feeding in mg per Live Termite (std. err.) days 1-8 [3]: 0.57 (0.08) mg per Live Termite
- Average Feeding in mg per Live Termite (std. err.) days 9-16 [3]: 0.54 (0.07) mg per Live Termite
- Average Feeding in mg per Live Termite (std. err.) days 17-24 [3]: 0.44 (0.07) mg per Live Termite
- Normalized Avg. Totals [3]: 0.96
- Average Feeding in mg per Live Termite (std. err.) days 1-8 [4]: 0.34 (0.01) mg per Live Termite
- Average Feeding in mg per Live Termite (std. err.) days 9-16 [4]: 0.34 (0.03) mg per Live Termite
- Average Feeding in mg per Live Termite (std. err.) days 17-24 [4]: 0.47 (0.03) mg per Live Termite
- Normalized Avg. Totals [4]: 1.03
- Average Feeding in mg per Live Termite (std. err.) days 1-8 [5]: 0.55 (0.02) mg per Live Termite
- Average Feeding in mg per Live Termite (std. err.) days 9-16 [5]: 0.58 (0.03) mg per Live Termite
- Average Feeding in mg per Live Termite (std. err.) days 17-24 [5]: 0.51 (0.03) mg per Live Termite
- Normalized Avg. Totals [5]: 0.92
- Average Feeding in mg per Live Termite (std. err.) days 1-8 [6]: 0.36 (0.04) mg per Live Termite
- Average Feeding in mg per Live Termite (std. err.) days 9-16 [6]: 0.38 (0.01) mg per Live Termite
- Average Feeding in mg per Live Termite (std. err.) days 17-24 [6]: 0.39 (0.06) mg per Live Termite
- Normalized Avg. Totals [6]: 1.04
- Average Feeding in mg per Live Termite (std. err.) days 1-8 [7]: 0.39 (0.06) mg per Live Termite
- Average Feeding in mg per Live Termite (std. err.) days 9-16 [7]: 0.58 (0.07) mg per Live Termite
- Average Feeding in mg per Live Termite (std. err.) days 17-24 [7]: 0.39 (0.07) mg per Live Termite
- Normalized Avg. Totals [7]: 0.72
- Average Feeding in mg per Live Termite (std. err.) days 1-8 [8]: 0.29 (0.02) mg per Live Termite
- Average Feeding in mg per Live Termite (std. err.) days 9-16 [8]: 0.29 (0.03) mg per Live Termite
- Average Feeding in mg per Live Termite (std. err.) days 17-24 [8]: 0.43 (0.05) mg per Live Termite
- Normalized Avg. Totals [8]: 0.92
- Average Feeding in mg per Live Termite (std. err.) days 1-8 [9]: 0.32 (0.07) mg per Live Termite
- Average Feeding in mg per Live Termite (std. err.) days 9-16 [9]: 0.38 (0.09) mg per Live Termite
- Average Feeding in mg per Live Termite (std. err.) days 17-24 [9]: 0.41 (0.05) mg per Live Termite
- Normalized Avg. Totals [9]: 0.93
- Average Feeding in mg per Live Termite (std. err.) days 1-8 [10]: 0.17 (0.02) mg per Live Termite
- Average Feeding in mg per Live Termite (std. err.) days 9-16 [10]: 0.25 (0.02) mg per Live Termite
- Average Feeding in mg per Live Termite (std. err.) days 17-24 [10]: 0.45 (0.04) mg per Live Termite
- Normalized Avg. Totals [10]: 0.79
- Average Feeding in mg per Live Termite (std. err.) days 1-8 [11]: 0.27 (0.04) mg per Live Termite
- Average Feeding in mg per Live Termite (std. err.) days 9-16 [11]: 0.22 (0.05) mg per Live Termite
- Average Feeding in mg per Live Termite (std. err.) days 17-24 [11]: 0.34 (0.02) mg per Live Termite
- Normalized Avg. Totals [11]: 0.83
- Average Feeding in mg per Live Termite (std. err.) days 1-8 [12]: 0.25 (0.04) mg per Live Termite
- Average Feeding in mg per Live Termite (std. err.) days 9-16 [12]: 0.31 (0.05) mg per Live Termite
- Average Feeding in mg per Live Termite (std. err.) days 17-24 [12]: 0.40 (0.02) mg per Live Termite
- Normalized Avg. Totals [12]: 0.87
- Average Feeding in mg per Live Termite (std. err.) days 1-8 [13]: 0.30 (0.01) mg per Live Termite
- Average Feeding in mg per Live Termite (std. err.) days 9-16 [13]: 0.34 (0.01) mg per Live Termite
- Average Feeding in mg per Live Termite (std. err.) days 17-24 [13]: 0.34 (0.02) mg per Live Termite
- Normalized Avg. Totals [13]: 0.99
- Average Feeding in mg per Live Termite (std. err.) days 1-8 [14]: 0.25 (0.02) mg per Live Termite
- Average Feeding in mg per Live Termite (std. err.) days 9-16 [14]: 0.28 (0.03) mg per Live Termite
- Average Feeding in mg per Live Termite (std. err.) days 17-24 [14]: 0.29 (0.01) mg per Live Termite
- Normalized Avg. Totals [14]: 0.74
- Average Feeding in mg per Live Termite (std. err.) days 1-8 [15]: 0.17 (0.03) mg per Live Termite
- Average Feeding in mg per Live Termite (std. err.) days 9-16 [15]: 0.21 (0.02) mg per Live Termite
- Average Feeding in mg per Live Termite (std. err.) days 17-24 [15]: 0.28 (0.02) mg per Live Termite
- Normalized Avg. Totals [15]: 0.67
- Average Feeding in mg per Live Termite (std. err.) days 1-8 [16]: 0.21 (0.03) mg per Live Termite
- Average Feeding in mg per Live Termite (std. err.) days 9-16 [16]: 0.19 (0.07) mg per Live Termite
- Average Feeding in mg per Live Termite (std. err.) days 17-24 [16]: 0.27 (0.05) mg per Live Termite
- Normalized Avg. Totals [16]: 0.60
- Effect on feeding (cumulative percent of untreated controls through 24 days) (across tested concentrations 0.1-75 mM, FIGS. 7A-7C, 8A-8B): did not stimulate consumption at any concentration; also recorded: little stimulatory effects at any concentration
- mortality, field colony termites (field colony, FIG. 13): approximately 30%
- maximum mortality (highest FMG concentration, FIG. 7D (2 colonies averaged)): approximately 20%
- maximum mortality (highest concentration tested, FIG. 10A): 10%
- mortality, lab colony termites (lab colony, FIG. 13): 2-3%
